# In patent publication US9650389B2, “8-oxoprotoberberine derivative or pharmaceutically acceptable salt thereof, preparation method therefor and pharmaceutical composition for preventing or treating diseases associated with activity of NFAT5, containing same as active ingredient” (Korea Research Institute of Chemical Technology, priority 2013, dated 2017):
# Where two headings read alike, the source gives them in different places.
# Legend:
# iNOS = assay: Inhibition of LPS-induced iNOS induction in Raw264.7 cells (Griess reagent); type: cell-based; details: Mus musculus, read-out: Inhibition rate of iNOS induction (%)
# Description: To investigate whether or not the derivative of the present invention could inhibit iNOS inducement, Raw264.7 cells (mouse macrophages) were distributed in a 384-well plate at the density of 3×10^4 cells/well. The cells were treated with LPS at the concentration of 100 ng/ml, followed by culture at 37° C. for 24 hours. The concentration of […] increased in the medium was measured by using Griess reagent. The inhibition rate was calculated by mathematical formula based on the detected signals. The results are shown in Table 2. % inhibition=(mean value of sample−mean value of negative control)/(mean value of positive control −mean value of negative control)×100 [Mathematical Formula 1]
# NFAT5 = biological target: T1, NFAT5 (Mus musculus, UniProt Q9WV30); assay: NFAT5 reporter screening (GFP, HCS) in LPS-treated Raw264.7 cells; type: cell-based; details: for Inhibition rate of NFAT5 transcription (%): Raw264.7 reporter, LPS 1 μg/ml, 48 hours; for inhibiting NFAT5 activity (in words): Table 3 and FIG. 1
# T1 construct: endogenous in cells; host or cells: RAW264.7
# T1 sequence (Q9WV30 whole entry): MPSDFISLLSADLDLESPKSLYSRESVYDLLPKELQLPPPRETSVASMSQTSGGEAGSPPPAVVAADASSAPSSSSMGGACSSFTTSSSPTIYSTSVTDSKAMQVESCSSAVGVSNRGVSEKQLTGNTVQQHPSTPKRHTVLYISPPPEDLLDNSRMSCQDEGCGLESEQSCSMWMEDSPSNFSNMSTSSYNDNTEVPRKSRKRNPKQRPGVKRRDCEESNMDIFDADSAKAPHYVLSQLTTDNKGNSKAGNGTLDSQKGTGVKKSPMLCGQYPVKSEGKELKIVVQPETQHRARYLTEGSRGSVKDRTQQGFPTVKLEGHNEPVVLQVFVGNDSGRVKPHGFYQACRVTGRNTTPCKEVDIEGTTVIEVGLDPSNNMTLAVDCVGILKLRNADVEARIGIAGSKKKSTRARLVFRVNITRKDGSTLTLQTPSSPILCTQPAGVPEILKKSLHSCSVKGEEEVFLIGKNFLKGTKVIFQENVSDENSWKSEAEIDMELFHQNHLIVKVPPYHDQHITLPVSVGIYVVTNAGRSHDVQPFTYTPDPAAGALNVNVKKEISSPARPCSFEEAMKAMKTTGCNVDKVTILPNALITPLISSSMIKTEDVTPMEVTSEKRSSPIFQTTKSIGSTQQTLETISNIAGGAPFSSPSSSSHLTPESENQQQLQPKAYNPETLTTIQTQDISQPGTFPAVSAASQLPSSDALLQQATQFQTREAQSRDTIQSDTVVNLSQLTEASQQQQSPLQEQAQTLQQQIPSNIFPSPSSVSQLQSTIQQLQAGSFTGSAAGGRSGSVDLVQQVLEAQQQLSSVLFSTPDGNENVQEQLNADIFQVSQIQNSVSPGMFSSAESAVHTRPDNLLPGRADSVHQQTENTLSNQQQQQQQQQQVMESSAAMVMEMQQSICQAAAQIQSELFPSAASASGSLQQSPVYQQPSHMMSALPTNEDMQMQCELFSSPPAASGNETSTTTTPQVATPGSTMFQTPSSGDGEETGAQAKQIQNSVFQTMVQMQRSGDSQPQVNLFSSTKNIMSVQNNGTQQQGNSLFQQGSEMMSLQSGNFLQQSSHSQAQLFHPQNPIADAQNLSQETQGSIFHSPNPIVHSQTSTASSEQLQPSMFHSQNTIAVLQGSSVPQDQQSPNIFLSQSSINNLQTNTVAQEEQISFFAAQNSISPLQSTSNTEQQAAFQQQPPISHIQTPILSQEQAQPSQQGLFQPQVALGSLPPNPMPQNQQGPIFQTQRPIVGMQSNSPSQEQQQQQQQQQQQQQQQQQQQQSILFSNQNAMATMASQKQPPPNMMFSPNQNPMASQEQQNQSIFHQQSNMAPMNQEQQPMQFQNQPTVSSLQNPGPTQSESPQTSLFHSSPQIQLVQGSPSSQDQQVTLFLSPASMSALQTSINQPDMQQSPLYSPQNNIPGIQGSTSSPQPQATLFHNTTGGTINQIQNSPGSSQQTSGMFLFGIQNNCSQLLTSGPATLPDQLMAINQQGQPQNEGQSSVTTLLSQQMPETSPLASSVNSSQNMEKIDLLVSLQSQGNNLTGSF
# Description: To investigate whether or not the derivative of the present invention could inhibit the transcriptional activity of NFAT5, NFAT5 reporter screening was performed. A plasmid vector was constructed by eliminating CMV promoter sequence from the backbone and inserting NFAT5 binding site sequence ([…]) instead. Raw264.7 cells transfected with the vector were cultured in 10% FBS-PRMI (supplemented with 500 μg/ml G418). The cells were distributed in a 96-well plate at the density of 3×10^3 cells/well, followed by further culture for one more day. The cells were treated with LPS at the concentration of 1 μg/ml for 48 hours. Then, the cells were fixed and the expression level of GFP was measured by HCS fluorescence image (Thermo, ArrayScan^VTI).
# [1] = Cytotoxicity test (WST-8), CHO-K1; type: cell-based; details: Chinese hamster, CHO-K1 ovary cells; CHO-K1, 24 hours
# Description: (§1) To investigate the cytotoxicity of the derivative of the present invention, 5 kinds of cell lines (VERO: African green monkey kidney cell line, HFL-1: human embryonic lung cell line, L929: NCTC clone 929, mouse fibroblast cell line, NIH 3T3: mouse embryonic fibroblast cell line, and CHO-K1: Chinese hamster ovary cell line) were distributed in a 96-well plate at the density of 1×10^4 cells/well, which were treated with the compound of the present invention for 24 hours. The water-soluble tetrazolium salt WST-8 was added thereto. The orange colored formazan dye degraded by dehydrogenase in the live cells was read, followed by nonlinear regression to determine 50% growth inhibition concentration.
# [2] = Cytotoxicity test (WST-8), HFL-1; type: cell-based; details: human, HFL-1 embryonic lung cells; HFL-1, 24 hours
# Description: as §1
# [3] = Cytotoxicity test (WST-8), L929; type: cell-based; details: mouse, L929 fibroblast cells (NCTC clone 929); L929, 24 hours
# Description: as §1
# [4] = Cytotoxicity test (WST-8), NIH 3T3; type: cell-based; details: mouse, NIH 3T3 embryonic fibroblast cells; NIN3T3, 24 hours
# Description: as §1
# [5] = Cytotoxicity test (WST-8), VERO; type: cell-based; details: African green monkey, VERO kidney cells
# Description: as §1
# COX2 = biological target: T2, COX2 (Ovis aries, UniProt P79208); assay: COX inhibition, COX assay kit (Table 5); type: biochemical
# T2 construct: purchased Cayman Co. 760111
# T2 sequence (P79208 17-603): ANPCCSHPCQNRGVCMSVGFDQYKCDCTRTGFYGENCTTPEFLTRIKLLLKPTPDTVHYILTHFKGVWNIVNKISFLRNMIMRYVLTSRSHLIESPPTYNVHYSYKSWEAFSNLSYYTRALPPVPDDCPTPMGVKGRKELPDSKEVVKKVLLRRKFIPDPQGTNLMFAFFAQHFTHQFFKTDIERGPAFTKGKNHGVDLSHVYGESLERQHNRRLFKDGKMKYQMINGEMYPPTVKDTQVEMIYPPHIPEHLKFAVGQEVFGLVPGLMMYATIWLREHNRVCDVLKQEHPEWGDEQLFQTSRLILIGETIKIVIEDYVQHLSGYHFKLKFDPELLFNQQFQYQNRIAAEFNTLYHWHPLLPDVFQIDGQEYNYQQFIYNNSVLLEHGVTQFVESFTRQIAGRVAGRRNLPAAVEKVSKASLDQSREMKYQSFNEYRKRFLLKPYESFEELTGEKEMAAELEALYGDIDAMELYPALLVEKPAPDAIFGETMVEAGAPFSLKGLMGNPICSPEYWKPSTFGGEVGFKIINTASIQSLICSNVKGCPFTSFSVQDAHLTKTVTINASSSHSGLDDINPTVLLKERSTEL
# Description: (§2) 10 μl of substrate and 10 μl of arachidonic acid were added thereto, followed by reaction for 10 minutes in the darkness. Then, OD590 was measured.
# COX1 = biological target: T3, COX1 (Ovis aries, UniProt P05979); assay: COX inhibition, COX assay kit (Table 4); type: biochemical
# T3 construct: purchased Cayman Co. 760111
# T3 sequence (P05979 25-600): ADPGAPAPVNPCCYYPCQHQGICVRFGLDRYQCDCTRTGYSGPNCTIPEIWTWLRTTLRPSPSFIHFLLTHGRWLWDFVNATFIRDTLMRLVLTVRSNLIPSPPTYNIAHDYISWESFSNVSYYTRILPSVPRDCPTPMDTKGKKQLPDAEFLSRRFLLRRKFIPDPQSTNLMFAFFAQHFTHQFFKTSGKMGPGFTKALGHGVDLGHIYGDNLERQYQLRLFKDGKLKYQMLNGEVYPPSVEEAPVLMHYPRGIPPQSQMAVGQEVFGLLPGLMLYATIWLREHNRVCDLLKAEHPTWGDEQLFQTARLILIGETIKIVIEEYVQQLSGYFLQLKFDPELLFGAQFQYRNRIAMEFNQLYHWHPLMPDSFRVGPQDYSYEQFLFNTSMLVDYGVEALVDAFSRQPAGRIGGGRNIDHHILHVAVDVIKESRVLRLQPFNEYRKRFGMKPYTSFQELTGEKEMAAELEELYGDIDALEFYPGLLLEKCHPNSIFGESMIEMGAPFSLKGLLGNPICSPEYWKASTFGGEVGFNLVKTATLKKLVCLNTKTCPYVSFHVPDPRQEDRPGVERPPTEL
# Description: as §2
# [6] = 1 μM, Raw264.7, LPS 100 ng/ml, 24 hours
# [7] = 10 μM, Raw264.7, LPS 100 ng/ml, 24 hours
# [8] = Conc. 0.16 μM, two values per substance
# [9] = Conc. 0.16 μM, two values per substance, read-out: inhibition rate
# [10] = Conc. 0.8 μM, two values per substance
# [11] = Conc. 0.8 μM, two values per substance, read-out: inhibition rate
# [12] = Conc. 4 μM, two values per substance
# [13] = Conc. 4 μM, two values per substance, read-out: inhibition rate
# [14] = Conc. 20 μM, two values per substance
# [15] = Conc. 20 μM, two values per substance, read-out: inhibition rate
# [16] = Conc. 100 μM, two values per substance
# [17] = Conc. 100 μM, two values per substance, read-out: inhibition rate
structure (smiles),measurement,setting,value
"COc1ccc2c(Cc3ccccc3C)c3n(c(=O)c2c1OC)CCc1cc2c(cc1-3)OCO2 [Example 4, 9,10-dimethoxy-13-(2-methylbenzyl)-5,6-dihydro-[1,3]dioxolo[4,5-g]isoquinolino [3,2-a]isoquinoline-8(6H)-one]",inhibition at 1 µM,iNOS; [6],23.2%
same,inhibition at 10 µM,iNOS; [7],97.9%
same,Inhibition rate of NFAT5 transcription (%),NFAT5; 1 μM,7.4%
same,Inhibition rate of NFAT5 transcription (%),NFAT5; 10 μM,88.2%
"COc1ccc2c(Cc3nc4ccccc4[nH]3)c3n(c(=O)c2c1OC)CCc1cc2c(cc1-3)OCO2 [Example 7, 13-((1H-benzo[d]imidazole-2-yl)methyl)-9,10-dimethoxy-5,6-dihydro-[1,3]dioxolo [4,5-g]isoquinolino[3,2-a]isoquinoline-8(6H)-one]",inhibition at 1 µM,"iNOS; RAW264.7, 24 h",13.4%
same,inhibition at 10 µM,"iNOS; RAW264.7, 24 h",100%
same,Inhibition rate of NFAT5 transcription (%),NFAT5; 1 μM,18.5%
same,Inhibition rate of NFAT5 transcription (%),NFAT5; 10 μM,28.2%
"COc1ccc2c(C(=O)c3ccccc3F)c3n(c(=O)c2c1OC)CCc1cc2c(cc1-3)OCO2 [Example 9, 13-(2-fluorobenzoyl)-9,10-dimethoxy-5H-[1,3]dioxolo[4,5-g]isoquinolino[3,2-a]isoquinoline-8(6H)-one]",inhibition at 1 µM,iNOS; [6],65.6%
same,inhibition at 10 µM,iNOS; [7],117%
same,Inhibition rate of NFAT5 transcription (%),NFAT5; 1 μM,0.5%
same,Inhibition rate of NFAT5 transcription (%),NFAT5; 10 μM,16.4%
"COc1ccc2c(Cc3ccccn3)c3n(c(=O)c2c1OC)CCc1cc2c(cc1-3)OCO2 [Example 6, 9,10-dimethoxy-13-(pyridine-2-ylmethyl)-5,6-dihydro-[1,3]dioxolo[4,5-g]isoquinolino [3,2-a]isoquinoline-8(6H)-one]",GI50 at 24 h,[1],> 100 µM
same,GI50 at 24 h,[2],> 100 µM
same,GI50 at 24 h,[3],> 100 µM
same,inhibition at 1 µM,iNOS; [6],7.2%
same,inhibition at 10 µM,iNOS; [7],115%
same,Inhibition rate of NFAT5 transcription (%),NFAT5; 1 μM,9.9%
same,Inhibition rate of NFAT5 transcription (%),NFAT5; 10 μM,67.9%
same,inhibiting NFAT5 activity (in words),NFAT5,remarkably excellent in inhibiting NFAT5 activity
same,GI50 at 24 h,[4],> 100 µM
same,GI50 at 24 h,[5],> 100 µM
"COc1ccc2c(C(=O)O)c3n(c(=O)c2c1OC)CCc1cc2c(cc1-3)OCO2 [Example 11, 9,10-dimethoxy-8-oxo-6,8-dihydro-5H-[1,3]dioxolo[4,5-g]isoquinolino[3,2-a]isoquinoline-13-carboxylic acid]",inhibition at 1 µM,iNOS; [6],-17.2%
same,inhibition at 10 µM,iNOS; [7],118%
same,Inhibition rate of NFAT5 transcription (%),NFAT5; 1 μM,−10.4%
same,Inhibition rate of NFAT5 transcription (%),NFAT5; 10 μM,−12.8%
COc1ccc2cc3[n+](cc2c1OC)CCc1cc2c(cc1-3)OCO2 [Berberine],inhibition at 0.032 µM,"COX2; Conc. 0.032 μM, two values per substance, read-out: inhibition rate",0%
same,inhibition rate,COX2; [8],7.9
same,inhibition at 0.16 µM,COX2; [9],8.8%
same,inhibition rate,COX2; [10],19.8
same,inhibition at 0.8 µM,COX2; [11],17.2%
same,inhibition rate,COX2; [12],29.9
same,inhibition at 4 µM,COX2; [13],28.2%
same,inhibition rate,COX2; [14],39.3
same,inhibition at 20 µM,COX2; [15],41%
same,inhibition rate,COX2; [16],53.7
same,inhibition at 100 µM,COX2; [17],50.3%
same,IC50,COX2; Table 5,58.4 µM
same,inhibition rate,COX1; [8],5.4
same,inhibition at 0.16 µM,COX1; [9],3.3%
same,inhibition rate,COX1; [10],13.4
same,inhibition at 0.8 µM,COX1; [11],12.4%
same,inhibition rate,COX1; [12],20.4
same,inhibition at 4 µM,COX1; [13],18.4%
same,inhibition rate,COX1; [14],31.4
same,inhibition at 20 µM,COX1; [15],24.4%
same,inhibition rate,COX1; [16],51.5
same,inhibition at 100 µM,COX1; [17],53.5%
same,IC50,COX1; Table 4,96.3 µM
"COc1ccc2c(C(N)=O)c3n(c(=O)c2c1OC)CCc1cc2c(cc1-3)OCO2 [Example 12, 9,10-dimethoxy-8-oxo-6,8-dihydro-5H-[1,3]dioxolo[4,5-g]isoquinolino[3,2-a]isoquinoline-13-carboxamide]",inhibition at 1 µM,iNOS; [6],35.4%
same,inhibition at 10 µM,iNOS; [7],107%
same,Inhibition rate of NFAT5 transcription (%),NFAT5; 1 μM,−2.9%
same,Inhibition rate of NFAT5 transcription (%),NFAT5; 10 μM,−5.2%
"COc1ccc2c(C(=O)Nc3ccccc3F)c3n(c(=O)c2c1OC)CCc1cc2c(cc1-3)OCO2 [Example 13, N-(2-fluorophenyl)-9,10-dimethoxy-8-oxo-6,8-dihydro-5H-[1,3]dioxolo[4,5-g]isoquinolino[3,2-a]isoquinoline-13-carboxamide]",inhibition at 1 µM,iNOS; [6],70.8%
same,inhibition at 10 µM,iNOS; [7],106%
same,Inhibition rate of NFAT5 transcription (%),NFAT5; 1 μM,−11.1%
same,Inhibition rate of NFAT5 transcription (%),NFAT5; 10 μM,−29.9%
"COc1ccc2c(Cc3ccc(F)cc3F)c3n(c(=O)c2c1OC)CCc1cc2c(cc1-3)OCO2 [Example 2, 13-(2,4-difluorobenzyl)-9,10-dimethoxy-5H-[1,3]dioxolo[4,5-g]isoquinolino[3,2-a]isoquinoline-8(6H)-one]",inhibition at 1 µM,iNOS; [6],56.8%
same,inhibition at 10 µM,iNOS; [7],95.2%
same,Inhibition rate of NFAT5 transcription (%),NFAT5; 1 μM,13.6%
same,Inhibition rate of NFAT5 transcription (%),NFAT5; 10 μM,24.4%
"COc1ccccc1Cc1c2n(c(=O)c3c(OC)c(OC)ccc13)CCc1cc3c(cc1-2)OCO3 [Example 5, 9,10-dimethoxy-13-(2-methoxybenzyl)-5,6-dihydro-[1,3]dioxolo[4,5-g]isoquinolino [3,2-a]isoquinoline-8(6H)-one]",inhibition at 1 µM,iNOS; [6],29%
same,inhibition at 10 µM,iNOS; [7],98.3%
same,Inhibition rate of NFAT5 transcription (%),NFAT5; 1 μM,24.2%
same,Inhibition rate of NFAT5 transcription (%),NFAT5; 10 μM,77.6%
"CCOC(=O)c1c2n(c(=O)c3c(OC)c(OC)ccc13)CCc1cc3c(cc1-2)OCO3 [Example 10, ethyl9,10-dimethoxy-8-oxo-6,8-dihydro-5H-[1,3]dioxolo[4,5-g]isoquinolino[3,2-a]isoquinoline-13-carboxylate]",inhibition at 1 µM,"iNOS; RAW264.7, 24 h",53.9%
same,inhibition at 10 µM,"iNOS; RAW264.7, 24 h",99.2%
same,Inhibition rate of NFAT5 transcription (%),NFAT5; 1 μM,−3.8%
same,Inhibition rate of NFAT5 transcription (%),NFAT5; 10 μM,53.7%
same,inhibiting NFAT5 activity (in words),NFAT5,remarkably excellent in inhibiting NFAT5 activity
